Assay results published in patent US10231954B2, “Neurodegenerative therapies” (LYTIX BIOPHARMA AS, priority 2014, dated 2019).

Legend:
Format in all cases: biochemical
S6K1 = S6K1 (Homo sapiens, UniProt P23443); experiment: Kinase profiling S6K1; settings: for residual kinase activity, S6K1: 100 micromolar inhibitor concentration, 100 is no change
Description: (§1) Any value less that 25 is considered to be highly significant inhibition.

IGF-1R = IGF-1R (Homo sapiens, UniProt P08069); experiment: Kinase profiling IGF-1R; settings: for residual kinase activity, IGF-1R: 100 micromolar inhibitor concentration, 100 is no change
Description: as §1

PKBb = PKBb (Homo sapiens, UniProt P31751); experiment: Kinase profiling PKBb; settings: for residual kinase activity, PKBb: 100 micromolar inhibitor concentration, 100 is no change
Description: as §1

SGK1 = target: T1, SGK1 (Homo sapiens, UniProt O00141); experiment: Kinase profiling SGK1; settings: for residual kinase activity, SGK1: 100 micromolar inhibitor concentration, 100 is no change
T1 sequence (O00141 1-431): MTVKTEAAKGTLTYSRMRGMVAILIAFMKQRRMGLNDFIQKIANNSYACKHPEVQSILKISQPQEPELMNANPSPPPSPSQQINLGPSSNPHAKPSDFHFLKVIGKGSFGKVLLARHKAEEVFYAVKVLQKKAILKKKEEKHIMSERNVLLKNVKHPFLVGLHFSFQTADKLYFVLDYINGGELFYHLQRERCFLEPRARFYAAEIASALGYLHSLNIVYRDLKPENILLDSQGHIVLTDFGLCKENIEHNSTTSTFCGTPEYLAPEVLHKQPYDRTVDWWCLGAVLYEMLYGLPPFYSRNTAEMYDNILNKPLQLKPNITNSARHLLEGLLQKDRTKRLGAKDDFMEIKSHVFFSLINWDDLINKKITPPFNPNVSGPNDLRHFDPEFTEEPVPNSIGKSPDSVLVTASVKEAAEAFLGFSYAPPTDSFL
Description: as §1

VEG-FR = experiment: Kinase profiling VEG-FR
Description: as §1

PRK2 = PRK2 (Homo sapiens, UniProt Q16513); experiment: Kinase profiling PRK2; settings: for residual kinase activity, PRK2: 100 micromolar inhibitor concentration, 100 is no change
Description: as §1

ERK1 = ERK1 (Homo sapiens, UniProt P27361); experiment: Kinase profiling ERK1; settings: for residual kinase activity, ERK1: 100 micromolar inhibitor concentration, 100 is no change
Description: as §1

p38d MAPK = target: T2, p38d MAPK (Homo sapiens, UniProt O15264); experiment: Kinase profiling p38d MAPK; settings: for residual kinase activity, p38d MAPK: 100 micromolar inhibitor concentration, 100 is no change
T2 sequence (O15264 1-365): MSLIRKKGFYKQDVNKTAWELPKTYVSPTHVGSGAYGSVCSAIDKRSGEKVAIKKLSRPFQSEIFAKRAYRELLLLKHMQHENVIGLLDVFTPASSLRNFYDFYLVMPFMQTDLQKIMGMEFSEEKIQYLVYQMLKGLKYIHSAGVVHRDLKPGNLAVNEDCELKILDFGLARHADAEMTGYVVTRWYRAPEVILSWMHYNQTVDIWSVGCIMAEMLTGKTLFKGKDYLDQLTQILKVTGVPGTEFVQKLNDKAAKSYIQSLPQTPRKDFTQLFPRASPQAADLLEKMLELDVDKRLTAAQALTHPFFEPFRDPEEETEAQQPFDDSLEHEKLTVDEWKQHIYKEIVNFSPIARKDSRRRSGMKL
Description: as §1

Lck = Lck (Homo sapiens, UniProt P06239); experiment: Kinase profiling Lck; settings: for residual kinase activity, Lck: 100 micromolar inhibitor concentration, 100 is no change
Description: as §1

PKCz = target: T3, PKCz (Homo sapiens, UniProt Q05513); experiment: Kinase profiling PKCz; settings: for residual kinase activity, PKCz: 100 micromolar inhibitor concentration, 100 is no change
T3 sequence (Q05513 1-592): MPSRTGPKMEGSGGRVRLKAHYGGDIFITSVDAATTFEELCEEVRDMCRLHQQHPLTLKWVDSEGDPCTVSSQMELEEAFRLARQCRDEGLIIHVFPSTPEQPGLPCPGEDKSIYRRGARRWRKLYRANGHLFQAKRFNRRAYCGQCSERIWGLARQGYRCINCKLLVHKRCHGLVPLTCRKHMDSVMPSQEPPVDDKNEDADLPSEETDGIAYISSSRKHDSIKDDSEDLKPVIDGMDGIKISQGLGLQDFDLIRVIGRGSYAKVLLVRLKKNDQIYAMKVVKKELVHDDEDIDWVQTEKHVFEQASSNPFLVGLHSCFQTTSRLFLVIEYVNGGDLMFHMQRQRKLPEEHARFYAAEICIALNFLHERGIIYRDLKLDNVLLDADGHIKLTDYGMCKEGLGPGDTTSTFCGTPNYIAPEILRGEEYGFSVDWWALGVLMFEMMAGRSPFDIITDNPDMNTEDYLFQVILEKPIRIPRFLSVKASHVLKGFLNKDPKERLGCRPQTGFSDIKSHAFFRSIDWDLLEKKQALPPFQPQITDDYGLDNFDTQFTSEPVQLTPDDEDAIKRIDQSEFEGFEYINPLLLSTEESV
Description: as §1

SmMLCK = SmMLCK (Homo sapiens, UniProt Q15746); experiment: Kinase profiling SmMLCK; settings: for residual kinase activity, SmMLCK: 100 micromolar inhibitor concentration, 100 is no change
MARK3 = MARK3 (Homo sapiens, UniProt P27448); experiment: Kinase profiling MARK3; settings: for residual kinase activity, MARK3: 100 micromolar inhibitor concentration, 100 is no change
Description: as §1

JNK2 = JNK2 (Homo sapiens, UniProt P45984); experiment: Kinase profiling JNK2; settings: for residual kinase activity, JNK2: 100 micromolar inhibitor concentration, 100 is no change
Description: as §1

MLK3 = MLK3 (Homo sapiens, UniProt Q16584); experiment: Kinase profiling MLK3; settings: for residual kinase activity, MLK3: 100 micromolar inhibitor concentration, 100 is no change
Description: as §1

JNK3 = JNK3 (Homo sapiens, UniProt P53779); experiment: Kinase profiling JNK3; settings: for residual kinase activity, JNK3: 100 micromolar inhibitor concentration, 100 is no change
Description: as §1

MKK2 = MKK2 (Homo sapiens, UniProt P36507); experiment: Kinase profiling MKK2; settings: for residual kinase activity, MKK2: 100 micromolar inhibitor concentration, 100 is no change
Description: as §1

BTK = BTK (Homo sapiens, UniProt Q06187); experiment: Kinase profiling BTK; settings: for residual kinase activity, BTK: 100 micromolar inhibitor concentration, 100 is no change
Description: as §1

HIPK2 = HIPK2 (Homo sapiens, UniProt Q9H2X6); experiment: Kinase profiling HIPK2; settings: for residual kinase activity, HIPK2: 100 micromolar inhibitor concentration, 100 is no change
Description: as §1

MKK6 = target: T4, MKK6 (Homo sapiens, UniProt P52564); experiment: Kinase profiling MKK6; settings: for residual kinase activity, MKK6: 100 micromolar inhibitor concentration, 100 is no change
T4 sequence (P52564 1-334): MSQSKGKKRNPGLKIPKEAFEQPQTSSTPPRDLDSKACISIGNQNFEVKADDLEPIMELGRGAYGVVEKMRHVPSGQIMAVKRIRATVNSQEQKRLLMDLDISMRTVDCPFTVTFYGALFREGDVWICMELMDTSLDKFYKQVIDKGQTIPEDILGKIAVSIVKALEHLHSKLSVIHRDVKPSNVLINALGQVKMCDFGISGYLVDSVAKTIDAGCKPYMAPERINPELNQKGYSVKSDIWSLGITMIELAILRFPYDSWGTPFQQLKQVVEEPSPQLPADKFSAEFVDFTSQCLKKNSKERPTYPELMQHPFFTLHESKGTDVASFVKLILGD
Description: as §1

[1] = 100 micromolar inhibitor concentration, 100 is no change

Chain of HIPK2 (Q9H2X6 whole entry, species assumed): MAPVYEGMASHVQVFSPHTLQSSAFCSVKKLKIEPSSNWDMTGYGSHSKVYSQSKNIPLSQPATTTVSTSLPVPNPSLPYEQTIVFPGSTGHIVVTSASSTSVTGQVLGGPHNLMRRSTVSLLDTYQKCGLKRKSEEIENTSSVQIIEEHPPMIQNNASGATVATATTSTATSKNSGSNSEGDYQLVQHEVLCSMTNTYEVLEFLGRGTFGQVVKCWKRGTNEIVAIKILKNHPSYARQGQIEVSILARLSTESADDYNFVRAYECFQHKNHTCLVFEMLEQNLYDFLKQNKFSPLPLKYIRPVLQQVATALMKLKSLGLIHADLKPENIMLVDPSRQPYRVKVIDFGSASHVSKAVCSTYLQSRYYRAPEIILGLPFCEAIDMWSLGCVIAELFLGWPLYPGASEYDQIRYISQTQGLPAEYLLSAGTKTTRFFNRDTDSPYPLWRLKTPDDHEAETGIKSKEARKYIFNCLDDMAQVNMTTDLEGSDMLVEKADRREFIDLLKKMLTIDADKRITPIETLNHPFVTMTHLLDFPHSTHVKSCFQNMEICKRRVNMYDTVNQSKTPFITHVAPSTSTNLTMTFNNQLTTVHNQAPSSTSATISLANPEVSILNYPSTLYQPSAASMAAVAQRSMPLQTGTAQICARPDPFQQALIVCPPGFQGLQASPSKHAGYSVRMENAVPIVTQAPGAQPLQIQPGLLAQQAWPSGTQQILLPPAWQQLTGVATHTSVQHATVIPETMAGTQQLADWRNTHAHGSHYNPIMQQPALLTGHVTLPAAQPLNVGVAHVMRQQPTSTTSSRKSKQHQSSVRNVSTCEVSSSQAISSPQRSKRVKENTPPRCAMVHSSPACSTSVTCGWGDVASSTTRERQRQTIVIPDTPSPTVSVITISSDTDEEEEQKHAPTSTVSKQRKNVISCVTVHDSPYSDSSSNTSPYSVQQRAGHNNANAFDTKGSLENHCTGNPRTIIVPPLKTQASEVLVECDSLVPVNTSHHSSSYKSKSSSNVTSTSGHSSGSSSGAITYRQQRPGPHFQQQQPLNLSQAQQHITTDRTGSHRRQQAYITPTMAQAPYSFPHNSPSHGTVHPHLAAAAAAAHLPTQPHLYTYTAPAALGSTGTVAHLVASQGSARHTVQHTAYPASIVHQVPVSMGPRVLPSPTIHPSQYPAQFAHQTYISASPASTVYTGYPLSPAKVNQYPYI
Chain of JNK2 (P45984 whole entry, species assumed): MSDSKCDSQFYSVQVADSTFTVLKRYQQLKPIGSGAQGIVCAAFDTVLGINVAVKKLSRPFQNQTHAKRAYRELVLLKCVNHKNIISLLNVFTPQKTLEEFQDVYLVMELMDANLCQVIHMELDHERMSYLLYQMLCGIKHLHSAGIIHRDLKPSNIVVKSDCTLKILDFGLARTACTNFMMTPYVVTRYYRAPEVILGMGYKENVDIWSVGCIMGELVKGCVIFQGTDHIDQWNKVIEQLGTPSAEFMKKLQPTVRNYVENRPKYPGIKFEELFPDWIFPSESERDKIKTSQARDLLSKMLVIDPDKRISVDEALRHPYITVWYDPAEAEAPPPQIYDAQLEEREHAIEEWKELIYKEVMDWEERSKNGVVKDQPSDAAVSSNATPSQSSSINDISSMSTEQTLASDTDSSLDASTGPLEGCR
Chain of Lck (P06239 whole entry, species assumed): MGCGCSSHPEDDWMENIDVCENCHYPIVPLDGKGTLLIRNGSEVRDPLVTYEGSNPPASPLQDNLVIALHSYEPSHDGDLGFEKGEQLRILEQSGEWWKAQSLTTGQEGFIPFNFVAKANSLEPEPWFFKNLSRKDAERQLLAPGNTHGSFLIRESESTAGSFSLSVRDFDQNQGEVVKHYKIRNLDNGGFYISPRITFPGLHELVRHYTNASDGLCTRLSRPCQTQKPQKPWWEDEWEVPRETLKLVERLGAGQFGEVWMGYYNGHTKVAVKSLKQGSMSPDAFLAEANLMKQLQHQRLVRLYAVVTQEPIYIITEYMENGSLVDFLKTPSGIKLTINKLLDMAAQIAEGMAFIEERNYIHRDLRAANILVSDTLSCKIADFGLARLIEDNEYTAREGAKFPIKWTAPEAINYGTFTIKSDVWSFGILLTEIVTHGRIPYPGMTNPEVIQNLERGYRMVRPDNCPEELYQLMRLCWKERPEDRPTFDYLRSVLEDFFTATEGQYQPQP
Chain of PRK2 (Q16513 whole entry, species assumed): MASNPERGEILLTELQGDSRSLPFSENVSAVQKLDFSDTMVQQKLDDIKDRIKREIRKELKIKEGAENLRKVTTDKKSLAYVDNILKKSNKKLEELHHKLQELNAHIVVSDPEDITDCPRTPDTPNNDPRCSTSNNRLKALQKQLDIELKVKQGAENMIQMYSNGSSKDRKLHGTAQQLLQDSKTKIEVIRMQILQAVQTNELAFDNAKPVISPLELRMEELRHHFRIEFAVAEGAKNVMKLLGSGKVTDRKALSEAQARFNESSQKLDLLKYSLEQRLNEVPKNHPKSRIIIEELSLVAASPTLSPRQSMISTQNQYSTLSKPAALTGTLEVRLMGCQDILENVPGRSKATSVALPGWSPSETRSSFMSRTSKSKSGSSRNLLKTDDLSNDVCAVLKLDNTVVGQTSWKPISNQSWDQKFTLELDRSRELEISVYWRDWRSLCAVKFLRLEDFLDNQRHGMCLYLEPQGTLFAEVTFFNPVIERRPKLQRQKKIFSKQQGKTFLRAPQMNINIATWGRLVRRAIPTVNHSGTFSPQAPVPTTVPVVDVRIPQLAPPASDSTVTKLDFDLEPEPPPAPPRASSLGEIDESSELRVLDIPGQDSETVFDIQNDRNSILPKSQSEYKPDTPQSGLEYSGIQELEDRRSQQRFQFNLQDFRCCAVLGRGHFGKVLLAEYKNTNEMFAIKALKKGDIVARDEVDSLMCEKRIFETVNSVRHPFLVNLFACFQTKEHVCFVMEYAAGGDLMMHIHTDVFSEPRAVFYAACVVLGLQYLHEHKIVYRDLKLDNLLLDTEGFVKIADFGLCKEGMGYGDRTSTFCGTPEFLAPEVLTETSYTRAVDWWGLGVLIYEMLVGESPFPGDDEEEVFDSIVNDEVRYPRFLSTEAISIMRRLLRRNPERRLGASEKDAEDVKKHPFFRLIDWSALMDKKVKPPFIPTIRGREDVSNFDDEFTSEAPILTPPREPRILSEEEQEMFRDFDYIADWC
Chain of IGF-1R (P08069 31-1367, species assumed): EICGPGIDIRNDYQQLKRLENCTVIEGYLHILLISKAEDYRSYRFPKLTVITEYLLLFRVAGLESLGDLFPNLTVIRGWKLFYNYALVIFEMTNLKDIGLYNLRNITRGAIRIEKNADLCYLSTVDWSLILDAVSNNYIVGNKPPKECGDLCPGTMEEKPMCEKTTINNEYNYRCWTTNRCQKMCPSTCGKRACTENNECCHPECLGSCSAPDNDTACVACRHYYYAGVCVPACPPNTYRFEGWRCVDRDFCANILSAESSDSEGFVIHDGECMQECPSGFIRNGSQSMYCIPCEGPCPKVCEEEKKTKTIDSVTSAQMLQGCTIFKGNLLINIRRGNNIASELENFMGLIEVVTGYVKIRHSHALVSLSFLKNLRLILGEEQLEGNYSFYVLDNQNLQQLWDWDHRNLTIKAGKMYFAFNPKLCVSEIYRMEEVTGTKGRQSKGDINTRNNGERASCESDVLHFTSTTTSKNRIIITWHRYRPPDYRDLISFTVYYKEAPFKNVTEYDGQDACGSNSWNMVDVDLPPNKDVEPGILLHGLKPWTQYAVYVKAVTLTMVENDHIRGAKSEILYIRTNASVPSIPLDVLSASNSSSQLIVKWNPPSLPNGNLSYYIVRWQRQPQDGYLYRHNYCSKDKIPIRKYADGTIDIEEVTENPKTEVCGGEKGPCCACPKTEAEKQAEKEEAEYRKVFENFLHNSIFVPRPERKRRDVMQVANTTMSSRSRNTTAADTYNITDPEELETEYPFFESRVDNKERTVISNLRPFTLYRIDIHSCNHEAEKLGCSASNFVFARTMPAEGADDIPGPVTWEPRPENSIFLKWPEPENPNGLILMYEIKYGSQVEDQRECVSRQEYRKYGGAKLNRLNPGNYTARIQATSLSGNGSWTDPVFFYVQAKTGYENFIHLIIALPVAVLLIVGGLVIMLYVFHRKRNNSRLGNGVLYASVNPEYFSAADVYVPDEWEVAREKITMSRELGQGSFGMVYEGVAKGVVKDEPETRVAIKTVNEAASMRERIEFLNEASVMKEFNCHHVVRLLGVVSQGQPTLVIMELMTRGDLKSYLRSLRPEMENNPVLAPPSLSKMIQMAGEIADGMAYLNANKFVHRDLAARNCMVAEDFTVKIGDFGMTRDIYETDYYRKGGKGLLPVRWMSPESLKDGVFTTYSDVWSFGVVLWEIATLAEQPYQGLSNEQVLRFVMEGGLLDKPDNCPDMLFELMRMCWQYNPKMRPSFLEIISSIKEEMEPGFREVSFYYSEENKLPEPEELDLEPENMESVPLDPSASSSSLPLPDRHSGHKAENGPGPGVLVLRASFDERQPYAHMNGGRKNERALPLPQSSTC
Chain of JNK3 (P53779 whole entry, species assumed): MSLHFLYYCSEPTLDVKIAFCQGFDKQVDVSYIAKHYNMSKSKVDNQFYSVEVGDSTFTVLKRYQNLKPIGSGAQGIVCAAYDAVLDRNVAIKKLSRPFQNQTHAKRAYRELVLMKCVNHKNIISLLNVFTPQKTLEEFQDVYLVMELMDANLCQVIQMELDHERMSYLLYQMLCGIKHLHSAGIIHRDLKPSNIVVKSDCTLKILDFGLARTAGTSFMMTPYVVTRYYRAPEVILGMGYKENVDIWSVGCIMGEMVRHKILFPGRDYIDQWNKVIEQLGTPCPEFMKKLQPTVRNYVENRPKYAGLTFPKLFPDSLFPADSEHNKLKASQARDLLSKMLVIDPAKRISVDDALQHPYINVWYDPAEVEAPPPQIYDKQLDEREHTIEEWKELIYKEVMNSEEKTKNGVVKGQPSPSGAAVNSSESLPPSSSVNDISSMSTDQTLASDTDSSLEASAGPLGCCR

Row | Structure (SMILES) | residual kinase activity, S6K1 (S6K1) | residual kinase activity, IGF-1R (IGF-1R) | residual kinase activity, PKBb (PKBb) | residual kinase activity, SGK1 (SGK1) | residual kinase activity, VEG-FR (VEG-FR; [1]) | residual kinase activity, PRK2 (PRK2) | residual kinase activity, ERK1 (ERK1) | residual kinase activity, p38d MAPK (p38d MAPK) | residual kinase activity, Lck (Lck) | residual kinase activity, PKCz (PKCz) | residual kinase activity, SmMLCK (SmMLCK) | residual kinase activity, MARK3 (MARK3) | residual kinase activity, JNK2 (JNK2) | residual kinase activity, MLK3 (MLK3) | residual kinase activity, JNK3 (JNK3) | residual kinase activity, MKK2 (MKK2) | residual kinase activity, BTK (BTK) | residual kinase activity, HIPK2 (HIPK2) | residual kinase activity, MKK6 (MKK6) | further results
1 | CC(=O)Nc1cccc(NC(=O)c2nc3ccc(O)cc3s2)c1 [Compound 03-07, N-(3-acetamidophenyl)-6-hydroxybenzo[d]thiazole-2-carboxamide] | – | – | – | – | – | – | – | – | – | – | – | – | – | – | – | – | – | – | – | remaining activity at 100 µM (S6K1; 100 micromolar inhibitor, 100 = no change, read-out: residual kinase activity, S6K1): 26%; remaining activity at 100 µM (IGF-1R; 100 micromolar inhibitor, 100 = no change, read-out: residual kinase activity, IGF-1R): 96%; remaining activity at 100 µM (PKBb; 100 micromolar inhibitor, 100 = no change, read-out: residual kinase activity, PKBb): 26%; remaining activity at 100 µM (SGK1; 100 micromolar inhibitor, 100 = no change, read-out: residual kinase activity, SGK1): 64%; residual kinase activity, VEG-FR (VEG-FR; 100 micromolar inhibitor, 100 = no change): 28; remaining activity at 100 µM (PRK2; 100 micromolar inhibitor, 100 = no change, read-out: residual kinase activity, PRK2): 74%; remaining activity at 100 µM (ERK1; 100 micromolar inhibitor, 100 = no change, read-out: residual kinase activity, ERK1): 102%; remaining activity at 100 µM (p38d MAPK; 100 micromolar inhibitor, 100 = no change, read-out: residual kinase activity, p38d MAPK): 81%; remaining activity at 100 µM (Lck; 100 micromolar inhibitor, 100 = no change, read-out: residual kinase activity, Lck): 88%; remaining activity at 100 µM (PKCz; 100 micromolar inhibitor, 100 = no change, read-out: residual kinase activity, PKCz): 107%; remaining activity at 100 µM (SmMLCK; 100 micromolar inhibitor, 100 = no change, read-out: residual kinase activity, SmMLCK): 21%; remaining activity at 100 µM (MARK3; 100 micromolar inhibitor, 100 = no change, read-out: residual kinase activity, MARK3): 72%; remaining activity at 100 µM (JNK2; 100 micromolar inhibitor, 100 = no change, read-out: residual kinase activity, JNK2): 104%; remaining activity at 100 µM (MLK3; 100 micromolar inhibitor, 100 = no change, read-out: residual kinase activity, MLK3): 39%; remaining activity at 100 µM (JNK3; 100 micromolar inhibitor, 100 = no change, read-out: residual kinase activity, JNK3): 50%; remaining activity at 100 µM (MKK2; 100 micromolar inhibitor, 100 = no change, read-out: residual kinase activity, MKK2): 88%; remaining activity at 100 µM (BTK; 100 micromolar inhibitor, 100 = no change, read-out: residual kinase activity, BTK): 32%; remaining activity at 100 µM (HIPK2; 100 micromolar inhibitor, 100 = no change, read-out: residual kinase activity, HIPK2): 46%; remaining activity at 100 µM (MKK6; 100 micromolar inhibitor, 100 = no change, read-out: residual kinase activity, MKK6): 114%
2 | O=C(Nc1nc2cc(O)ccc2s1)c1ccncc1 [Compound 03-11] | 83 | 107 | 82 | 84 | 58 | 77 | 88 | 82 | 93 | 86 | 63 | 75 | 93 | 95 | 77 | 98 | 107 | 67 | 101 | –
3 | O=C(Nc1nc2ccc(O)cc2s1)c1ccccn1 [Compound 03-12] | 50 | 54 | 61 | 88 | 17 | 66 | 74 | 77 | 82 | 88 | 9 | 79 | 101 | 46 | 70 | 82 | 71 | 18 | 99 | –
4 | O=C(Nc1nc2cc(O)ccc2s1)c1ccccn1 [Compound 03-13] | 71 | 84 | 60 | 74 | 24 | 97 | 97 | 99 | 77 | 102 | 37 | 68 | 103 | 57 | 67 | 82 | 90 | 43 | 105 | –
